{"source": "patent US20160356723A1", "about": "“Light-Up Probes Based On Fluorogens With Aggregation Induced Emission Characteristics For Cellular Imaging And Drug Screening” (NATIONAL UNIVERSITY OF SINGAPORE, priority 2014, published 2016)", "key": {"[1]": {"target": "T1, recombinant human caspase-3 (Homo sapiens, UniProt P42574)", "T1 construct": "purchased R&D Systems", "T1 sequence (P42574 29-175 limits assumed)": "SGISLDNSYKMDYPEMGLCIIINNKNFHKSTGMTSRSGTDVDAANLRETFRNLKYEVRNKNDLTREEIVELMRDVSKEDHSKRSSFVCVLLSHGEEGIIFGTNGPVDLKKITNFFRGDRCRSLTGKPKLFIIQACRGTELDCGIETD", "T1 sequence (P42574 176-277 limits assumed)": "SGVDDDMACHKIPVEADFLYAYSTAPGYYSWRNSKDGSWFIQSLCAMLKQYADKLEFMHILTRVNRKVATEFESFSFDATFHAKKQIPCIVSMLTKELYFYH", "assay": "Enzymatic assay: fluorescence light-up on DEVD cleavage by caspase-3", "assay_type": "biochemical", "method": "DMSO stock solutions of TPS-DEVD-Pt-cRGD were diluted with a mixture of DMSO and PIPES (v/v=1/199) to 10 μM. Next, each probe was incubated with ascorbic acid or caspase-3 at room temperature and the change of fluorescence intensity was measured. The PL spectra were collected from 420 to 650 nm under an excitation wavelength at 365 nm.\nTo study the enzymatic response of TPS-DEVD-COOH, we performed in vitro enzymatic assays with recombinant human caspase-3. Mixtures of the ascorbic acid pretreated prodrug (10 μM) and caspases-3 (200 pM) were prepared and incubated in PIPES buffer. After 1 h incubation, the PL spectra were measured in the range from 425 to 650 nm.\nThe fluorescence change of the TPS-DEVD-Pt-cRGD solution (10 μM) upon addition of ascorbic acid and caspase-3 enzyme was also monitored over time in a mixture of DMSO/PIPEs (v/v=1/199) buffer. […] We further studied the effect of caspase-3 concentration on the solution emission."}, "[2]": {"system": "MDA-MB-231 cells", "assay": "MTT cytotoxicity, MDA-MB-231", "assay_type": "cell-based", "conditions": "different concentrations, 72 h", "source_text": "(§1) We next studied the cytotoxicity profile of the prodrug to MDA-MB-231 and MCF-7 cells by a MTT assay."}, "[3]": {"system": "MCF-7 cells", "assay": "MTT cytotoxicity, MCF-7", "assay_type": "cell-based", "conditions": "72 h", "method": "3-(4,5-Dimethythiazol-2-yl)-2,5-diphenyltetrazolium bromide (MTT) assays were used to assess the metabolic activity of U87-MG and MCF-7 cancer cells. The cells were seeded in 96-well plates (Costar, Ill., USA) at an intensity of 4×10^4 cells mL^−1. After 24 h incubation, the medium was replaced by the probe suspension at different concentration of the prodrug and incubated at 37° C. After the designated time intervals, the wells were washed twice with 1×PBS buffer, and 100 μL of freshly prepared MTT (0.5 mg mL^−1) solution in culture medium was added into each well. The MTT medium solution was carefully removed after 3 h incubation in the incubator at 37° C. DMSO (100 μL) was then added into each well and the plate was gently shaken to dissolve all the precipitates formed. The absorbance of MTT at 570 nm was monitored by the microplate reader (Genios Tecan). Cell viability was expressed by the ratio of absorbance of the cells incubated with probe suspension to that of the cells incubated with culture medium only.\nWe next compared the relationship between the apoptosis induced fluorescence intensity change in cells and the cytotoxicity profile of the prodrug using both U87-MG and MCF-7 cells as an example. The fluorescence intensities at 480 nm are monitored upon excitation at 365 nm after incubation the cells for 6 h. The cytotoxicity of the cells was evaluated by a standard MTT method after the incubation for 72 h. In this experiment, we studied this effect using both U87-MG and MCF-7 cells. […] Also, we can find that higher cell viability of the cells will show lower fluorescence intensity which means low degrees of cell apoptosis. For example, when both cells are treated with 5 μM TPS-DEVD-Pt-cRGD, the cell viability is only 31% for U87-MG cells after 72 h incubation, while in sharp contrast, the cell viability is 92% for MCF-7 cells at the same conditions.\nas §1"}, "[4]": {"assay": "Solubility in water", "assay_type": "physicochemical", "conditions": "DMSO/PIPEs v/v=1/199"}, "[5]": {"assay": "Effect of ionic strength (NaCl) on emission", "assay_type": "physicochemical", "conditions": "NaCl 0 to 960 mM", "source_text": "We next studied the optical properties of our prodrug. The UV-vis absorption spectra of TPS-CH2N3 in THF and TPS-DEVD-Pt-cRGD in DMSO/PIPES (v/v=1/199) buffer were obtained. Both have similar absorption profiles with an obvious absorbance in the 320-440 nm range with a little blue shift after the modification of the AIE fluorogen. It is known that AIE fluorogen is non-fluorescent in good solvents but emits intensely in solid or as aggregates in poor solvents. […] As biosensing is often conducted in buffers, it is important to study the effect of ionic strength on the emission behavior of the prodrug. The experiments were performed with addition of sodium chloride into an aqueous solution of TPS-DEVD-Pt-cRGD (10 μM). […] TPS-DEVD-Pt-cRGD and its reduction product maintain an “off” state in the complex environment and thus have great potential to serve as a specific light-up apoptosis sensor for drug effect study with minimum background interference.\nThe photoluminescence (PL) spectra of TPE-CH2NH2 and TPE-SS-D5-cRGD in DMSO and phosphate buffered saline (PBS, pH=7.4) mixtures (v/v=1/199) are shown in FIG. 13A. […] [12] The TPE-SS-D5-cRGD probe is almost non-fluorescent in the same medium (Φ=0.001), due to the easy intramolecular rotations of the TPE phenyl rings in aqueous media. […]"}, "[6]": {"system": "normal U87-MG cell lysate", "assay": "Fluorescence in normal cell lysate", "assay_type": "biochemical, human", "conditions": "5 μM probe, lysate of normal cells", "method": "(§2) To study the selectivity of the prodrug, we incubated ascorbic acid pretreated TPS-DEVD-Pt-cRGD (10 μM) with several proteins, including lysozyme, pepsin, bovine serum albumin (BSA) and trypsin under identical conditions. […] As there are many different kinds of proteins or enzymes inside the cells, we further obtained the cellular lysate of normal and apoptotic U87-MG cells, which were pretreated with commonly used cell apoptosis inducer staurosporine (STS, 2 μM) to activate the caspase-3 enzyme in the cells. The cell lysates were directly incubated with TPS-DEVD-Pt-cRGD (5 μM) and the fluorescence intensity at 485 nm was monitored over time."}, "[7]": {"system": "lysozyme, pepsin, bovine serum albumin (BSA) and trypsin", "assay": "Selectivity of fluorescence response against other proteins", "assay_type": "biochemical", "conditions": "10 μM ascorbic acid pretreated probe, identical conditions as caspase-3", "method": "as §2"}, "[8]": {"system": "apoptotic U87-MG cell lysate", "assay": "Fluorescence in apoptotic cell lysate (STS pretreated)", "assay_type": "biochemical, human", "conditions": "5 μM probe, lysate of cells pretreated with STS 2 μM", "method": "as §2"}, "[9]": {"system": "U87-MG cells", "assay": "Confocal imaging of drug-induced apoptosis, U87-MG", "assay_type": "cell-based, human", "method": "(§3) U87-MG, MCF-7 and 293T cells were cultured in the chambers (LAB-TEK, Chambered Coverglass System) at 37° C. After 80% confluence, the culture medium was removed and washed twice with PBS buffer. The probe in DMSO stock solution was then added to the chamber to reach a final concentration of 5 μM. In some experiments, the cells were pre-incubated with media containing cRGD (50 μM) or inhibitor (5 μM) prior to prodrug incubation. After incubation the prodrug at 37° C. for 2 h, the medium was replaced with fresh medium, after that the cells were washed twice with ice-cold PBS and the cell nucleus was living stained with DRAQ5 (Biostatus) following the standard protocol of the manufacturer. […] The images were analyzed by Image J 1.43 x program (developed by NIH, http://rsbweb.nih.gov/ij/).\n(§4) To explore the capability of using TPS-DEVD-Pt-cRGD as a targeted drug delivery system and a drug induced apoptosis imaging probe in cancer cells. […] After 2 h of incubation, the cells were treated with cisplatin or staurosporine which both can activate the cell apoptosis and monitored with confocal microscopy. […] As the incubation time elapses, the fluorescence of U87-MG increases gradually with the cellular apoptotic progress, which reaches a maximum at 6 h. […]"}, "[10]": {"system": "MCF-7 cells", "assay": "Confocal imaging of drug-induced apoptosis, MCF-7", "assay_type": "cell-based", "conditions": "5 μM probe, 6 h incubation, low integrin expression", "method": "as §3, §4"}, "[11]": {"system": "293T cells", "assay": "Confocal imaging of drug-induced apoptosis, 293T", "assay_type": "cell-based", "conditions": "5 μM probe, 6 h incubation, low integrin expression", "method": "as §3, §4"}, "[12]": {"system": "ALP", "assay": "ALP detection in solution", "assay_type": "biochemical", "conditions": "emission maximum changes from 520 nm to 640 nm", "source_text": "The emission maximum of the solution changes from 520 nm to 640 nm in the presence of ALP."}}, "data": [{"smiles": "COC[C@@H]1CCCN1S(=O)(=O)c1ccc2c(c1)C(=O)C(=O)N2", "note": "[5-[(S)-(+)-2-(methoxymethyl)pyrrolidino]sulfonylisatin, reference compound]", "values": [{"measurement": "effect of inhibitor pretreatment on caspase-3 induced probe fluorescence", "setting": "[1]; ascorbic acid pretreated TPS-DEVD-Pt-cRGD 10 μM, caspase-3 200 pM, inhibitor 10 μM", "value": "most of the fluorescence is readily competed away"}]}, {"smiles": "N=C(N)NCCC[C@@H]1NC(=O)[C@H](CCCCNC(=O)[C@H](CC(=O)O)NC(=O)[C@H](CC(=O)O)NC(=O)[C@H](CC(=O)O)NC(=O)[C@H](CC(=O)O)NC(=O)[C@H](CC(=O)O)NC(=O)CCCCCCC(=O)NCCCC[n+]2ccc(/C=C/c3ccc(C(=C(c4ccccc4)c4ccccc4)c4ccccc4)cc3)cc2)NC(=O)[C@@H](Cc2ccccc2)NC(=O)[C@H](CC(=O)O)NC(=O)CNC1=O", "note": "[PyTPE-C6-D5-cRGD]", "values": [{"measurement": "cytotoxicity", "setting": "[2]", "value": "do not show significant cytotoxicity"}, {"measurement": "cytotoxicity", "setting": "[3]", "value": "do not show significant cytotoxicity"}]}, {"smiles": "N=C(N)NCCC[C@@H]1NC(=O)[C@H](CCCCNC(=O)[C@H](CC(=O)O)NC(=O)[C@H](CC(=O)O)NC(=O)[C@H](CC(=O)O)NC(=O)[C@H](CC(=O)O)NC(=O)[C@H](CC(=O)O)NC(=O)CCC(=O)[O][Pt-2]([NH3+])([NH3+])([Cl])([Cl])[O]C(=O)CCC(=O)NCCCC[n+]2ccc(/C=C/c3ccc(C(=C(c4ccccc4)c4ccccc4)c4ccccc4)cc3)cc2)NC(=O)[C@@H](Cc2ccccc2)NC(=O)[C@H](CC(=O)O)NC(=O)CNC1=O", "note": "[PyTPE-Pt-D5-cRGD]", "values": [{"measurement": "cytotoxicity", "setting": "[2]", "value": "much more obvious"}, {"measurement": "cytotoxicity", "setting": "[3]", "value": "minimum toxicity"}]}, {"smiles": "[NH3+][Pt-2]([NH3+])([Cl])([Cl])([O]C(=O)CCC(=O)NCCCC[n+]1ccc(/C=C/c2ccc(C(=C(c3ccccc3)c3ccccc3)c3ccccc3)cc2)cc1)[O]C(=O)CCC(=O)N[C@@H](CC(=O)O)C(=O)N[C@@H](CC(=O)O)C(=O)N[C@@H](CC(=O)O)C(=O)N[C@@H](CC(=O)O)C(=O)N[C@@H](CC(=O)O)C(=O)O", "note": "[PyTPE-Pt-D5]", "values": [{"measurement": "cytotoxicity", "setting": "[2]", "value": "do not show significant cytotoxicity"}, {"measurement": "cytotoxicity", "setting": "[3]", "value": "do not show significant cytotoxicity"}]}, {"smiles": "CC(C)[C@H](NC(=O)[C@H](CCC(=O)O)NC(=O)[C@H](CC(=O)O)NC(=O)CCC(=O)[O][Pt-2]([NH3+])([NH3+])([Cl])([Cl])[O]C(=O)CCC(=O)NCCCC[C@@H]1NC(=O)[C@@H](Cc2ccccc2)NC(=O)[C@H](CC(=O)O)NC(=O)CNC(=O)[C@H](CCCNC(=N)N)NC1=O)C(=O)N[C@@H](CC(=O)O)C(=O)N[C@@H](Cc1cn(Cc2ccc(C3=C(c4ccccc4)C(c4ccccc4)=C(c4ccccc4)[Si]3(C)C)cc2)nn1)C(N)=O", "note": "[TPS-DEVD-Pt-cRGD]", "values": [{"measurement": "solubility in water", "setting": "[4]", "value": "good solubility in water"}, {"measurement": "change of fluorescence with NaCl", "setting": "[5]", "value": "Almost no change"}, {"measurement": "fluorescence intensity at 485 nm (stability to cellular proteins)", "setting": "[6]", "value": "minimum change"}, {"measurement": "fluorescence intensity with other proteins", "setting": "[7]", "value": "remain low"}, {"measurement": "fluorescence intensity at 485 nm over time", "setting": "[8]", "value": "increases quickly"}, {"measurement": "incubation time at which cell fluorescence reaches maximum", "setting": "[9]; 5 μM probe, real-time imaging", "value": 6, "unit": "h"}, {"measurement": "cell fluorescence after pretreatment with free cRGD or/and caspase-3 inhibitor", "setting": "[9]; cRGD 50 μM or inhibitor 5 μM before probe", "value": "weak fluorescence"}, {"measurement": "cell fluorescence", "setting": "[10]", "value": "weak fluorescence signal"}, {"measurement": "cell fluorescence", "setting": "[11]", "value": "weak fluorescence signal"}, {"measurement": "fluorescence increase over intrinsic emission with caspase-3", "setting": "[1]; 10 μM probe pretreated with ascorbic acid, DMSO/PIPES v/v=1/199, PL at 485 nm, 60 min", "value": 28, "unit": "fold"}, {"measurement": "time to fluorescence plateau after caspase-3 addition", "setting": "[1]; 10 μM probe, ascorbic acid and caspase-3, DMSO/PIPES v/v=1/199", "value": 60, "unit": "min"}, {"measurement": "detection limit for caspase-3", "setting": "[1]; three times sigma method, 10 μM probe, 1 h", "value": 1, "unit": "pM"}]}, {"smiles": "CN(C)c1ccc(/C=C/C(=O)c2ccccc2OP(=O)(O)O)cc1", "note": "[probe-1]", "values": [{"measurement": "optical response to ALP", "setting": "[12]", "value": "distinct optical response"}]}]}
